# Biological target: soluble human BACE1 catalytic domain (Homo sapiens (Human), UniProt P56817)
# Experiment: BACE1 HTRF FRET Assay
# Settings: BACE1 Ki (nM)
# Chain of soluble human BACE1 catalytic domain (P56817 75-416): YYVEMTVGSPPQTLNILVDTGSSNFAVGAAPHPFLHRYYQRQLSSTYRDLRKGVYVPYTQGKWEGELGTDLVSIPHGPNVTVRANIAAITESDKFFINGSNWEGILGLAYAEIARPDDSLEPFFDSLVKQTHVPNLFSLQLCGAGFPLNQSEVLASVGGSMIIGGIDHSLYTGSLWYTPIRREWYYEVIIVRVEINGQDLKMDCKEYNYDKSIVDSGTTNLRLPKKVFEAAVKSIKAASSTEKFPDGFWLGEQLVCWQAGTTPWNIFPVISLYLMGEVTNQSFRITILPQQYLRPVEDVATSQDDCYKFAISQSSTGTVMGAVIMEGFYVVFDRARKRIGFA
row,SMILES,Ki [nM]
1,"Cc1nc2cc(CC3(C)C(=N)N[C@](C)(c4cc(F)ccc4F)CS3(=O)=O)ccc2o1 (single isomer, unassigned) [Example 32a-a]",3860
2,"Cc1nc2cc(CC3(C)C(=N)N[C@](C)(c4cc(F)ccc4F)CS3(=O)=O)ccc2o1 (single isomer, unassigned) [Example 32a-b]",4640

# Same assay, conditions: BACE1 Ki (nM), Ki calculated from IC50 using the Cheng-Prusoff equation
row,SMILES,Ki [nM]
1,CC1(C)C(=N)N[C@](C)(c2cc(NC(=O)c3ccc(F)cn3)ccc2F)CS1(=O)=O [Example 1],< 5
2,CC1(C)C(=N)N[C@](C)(c2cc(NC(=O)c3ncc(F)cc3F)ccc2F)CS1(=O)=O [Example 2],< 5

# Same assay, conditions: read-out: BACE1 % Inh. at 10 μM, at 10 μM
row,SMILES,inhibition at 10 µM [%]
1,CN(C)CC(=O)Nc1ccc(F)c([C@]2(C)CS(=O)(=O)C(C)(C)C(=N)N2)c1 [Example 9ay],23
2,CC1(C)C(=N)N[C@](C)(c2cc(NC(=O)C3CCOCC3)cc(F)c2F)CS1(=O)=O [Example 9bb],48
3,CN(C)CC(=O)Nc1cc(F)c(F)c([C@]2(C)CS(=O)(=O)C(C)(C)C(=N)N2)c1 [Example 9bw],48

# Same assay, conditions: read-out: BACE1 Ki; Ki calculated from IC50 using the Cheng-Prusoff equation
row,SMILES,Ki [nM]
1,CC1(C)C(=N)N[C@](C)(c2cc(NC(=O)c3ccc(F)cn3)ccc2F)CS1(=O)=O [Example 1],1.2
2,CC1(C)C(=N)N[C@](C)(c2cc(NC(=O)c3ncc(F)cc3F)ccc2F)CS1(=O)=O [Example 2],0.9
3,Cc1ccc(C(=O)Nc2ccc(F)c([C@]3(C)CS(=O)(=O)C(C)(C)C(=N)N3)c2)nc1 [Example 4],8
4,CC1(C)C(=N)N[C@](C)(c2cc(NC(=O)c3ccc(C(F)(F)F)cn3)ccc2F)CS1(=O)=O [Example 6],0.7
5,CC1(C)C(=N)N[C@](C)(c2cc(NC(=O)c3ccc(Cl)cc3)ccc2F)CS1(=O)=O [Example 8],19
6,CC1(C)C(=N)N[C@](C)(c2cc(NC(=O)c3ncc(Cl)cc3Cl)ccc2F)CS1(=O)=O [Example 9],< 0.5
7,COc1ccc(C(=O)Nc2ccc(F)c([C@]3(C)CS(=O)(=O)C(C)(C)C(=N)N3)c2)nc1 [Example 9a],4.6
8,CC1(C)C(=N)N[C@](C)(c2c(F)c(F)cc(NC(=O)c3ccc(F)cn3)c2F)CS1(=O)=O [Example 9aa],35.4
9,CC1(C)C(=N)N[C@](C)(c2c(F)c(F)cc(NC(=O)c3ccc(Cl)cn3)c2F)CS1(=O)=O [Example 9ab],9.6
10,CC1(C(=O)Nc2ccc(F)c([C@]3(C)CS(=O)(=O)C(C)(C)C(=N)N3)c2)COC1 [Example 9af],739
11,CC1(C)C(=N)N[C@](C)(c2cc(NC(=O)CC(F)(F)F)ccc2F)CS1(=O)=O [Example 9ag],663
12,CC1(C)C(=N)N[C@](C)(c2cc(NC(=O)C3(C#N)CC3)ccc2F)CS1(=O)=O [Example 9ah],210
13,CC1(C(=O)Nc2ccc(F)c([C@]3(C)CS(=O)(=O)C(C)(C)C(=N)N3)c2)CC1 [Example 9aj],1490
14,Cc1cnc(C(=O)Nc2ccc(F)c([C@]3(C)CS(=O)(=O)C(C)(C)C(=N)N3)c2)cn1 [Example 9ak],26
15,CC1(C)C(=N)N[C@](C)(c2cc(NC(=O)[C@H]3CCCO3)ccc2F)CS1(=O)=O [Example 9al],172
16,CC1(C)C(=N)N[C@](C)(c2cc(NC(=O)C3CC3)ccc2F)CS1(=O)=O [Example 9am],359
17,CC(=O)Nc1ccc(F)c([C@]2(C)CS(=O)(=O)C(C)(C)C(=N)N2)c1 [Example 9an],1440
18,Cc1noc(CC(=O)Nc2ccc(F)c([C@]3(C)CS(=O)(=O)C(C)(C)C(=N)N3)c2)n1 [Example 9ao],3240
19,CC1(C)C(=N)N[C@](C)(c2cc(NC(=O)c3cocn3)ccc2F)CS1(=O)=O [Example 9ap],39
20,CC1(C)C(=N)N[C@](C)(c2cc(NC(=O)C3CCC3)ccc2F)CS1(=O)=O [Example 9aq],476
21,CC1(C)C(=N)N[C@](C)(c2cc(NC(=O)CC3CC3)ccc2F)CS1(=O)=O [Example 9ar],915

row,SMILES,Ki [nM]
1,CCC(=O)Nc1ccc(F)c([C@]2(C)CS(=O)(=O)C(C)(C)C(=N)N2)c1 [Example 9as],521
2,CC1(C)C(=N)N[C@](C)(c2cc(NC(=O)C(F)F)ccc2F)CS1(=O)=O [Example 9au],195
3,CC1(C)C(=N)N[C@](C)(c2cc(NC(=O)C3CCOCC3)ccc2F)CS1(=O)=O [Example 9av],8580
4,CC1(C(=O)Nc2cc(F)c(F)c([C@]3(C)CS(=O)(=O)C(C)(C)C(=N)N3)c2)CC1 [Example 9az],708
5,CC1(C)C(=N)N[C@](C)(c2cc(NC(=O)c3ccc(C#N)cn3)ccc2F)CS1(=O)=O [Example 9b],< 0.5
6,CC1(C)C(=N)N[C@](C)(c2cc(NC(=O)CC(F)(F)F)cc(F)c2F)CS1(=O)=O [Example 9bc],703
7,CCC(=O)Nc1cc(F)c(F)c([C@]2(C)CS(=O)(=O)C(C)(C)C(=N)N2)c1 [Example 9be],429
8,CC1(C)C(=N)N[C@](C)(c2cc(NC(=O)C3(C#N)CC3)cc(F)c2F)CS1(=O)=O [Example 9bj],485
9,CC1(C)C(=N)N[C@](C)(c2cc(NC(=O)[C@H]3CCCO3)cc(F)c2F)CS1(=O)=O [Example 9bm],218
10,CC(=O)Nc1cc(F)c(F)c([C@]2(C)CS(=O)(=O)C(C)(C)C(=N)N2)c1 [Example 9bn],1020
11,CC1(C(=O)Nc2cc(F)c(F)c([C@]3(C)CS(=O)(=O)C(C)(C)C(=N)N3)c2)COC1 [Example 9bp],1150
12,Cc1noc(CC(=O)Nc2cc(F)c(F)c([C@]3(C)CS(=O)(=O)C(C)(C)C(=N)N3)c2)n1 [Example 9bq],4960
13,CC1(C)C(=N)N[C@](C)(c2cc(NC(=O)C3CCC3(F)F)cc(F)c2F)CS1(=O)=O (stereo partly drawn) [Example 9br],610
14,CC1(C)C(=N)N[C@](C)(c2cc(NC(=O)c3ccno3)cc(F)c2F)CS1(=O)=O [Example 9bs],171
15,CC1(C)C(=N)N[C@](C)(c2cc(NC(=O)C3CCC3)cc(F)c2F)CS1(=O)=O [Example 9bt],721
16,CC1(C)C(=N)N[C@](C)(c2cc(NC(=O)CC3CC3)cc(F)c2F)CS1(=O)=O [Example 9bv],1340
17,CC1(C)C(=N)N[C@](C)(c2cc(NC(=O)Cc3ncccn3)cc(F)c2F)CS1(=O)=O [Example 9bx],7070
18,CC1(C)C(=N)N[C@](C)(c2cc(NC(=O)c3ccc(OC(F)F)cn3)ccc2F)CS1(=O)=O [Example 9c],0.6
19,CC1(C)C(=N)N[C@](C)(c2nc(NC(=O)c3ccc(F)cn3)ccc2F)CS1(=O)=O [Example 9cd],48
20,COc1ccc(C(=O)Nc2ccc(F)c([C@]3(C)CS(=O)(=O)C(C)(C)C(=N)N3)n2)nc1 [Example 9ce],55.1

# Same assay, conditions: read-out: BACE1 inhibition, % Inh. at 10 μM, at 10 μM
row,SMILES,inhibition at 10 µM [%]
1,CC1(C)C(=N)N[C@](C)(c2c(F)c(F)cc([N+](=O)[O-])c2F)CS1(=O)=O [Entry 15],45
2,C[C@@]1(c2cc(N)ccc2F)CS(=O)(=O)[C@](C)(CC(F)(F)F)C(=N)N1 [Entry 36],37
3,C=CC[C@]1(C)C(=N)N[C@](C)(c2cc(N)ccc2F)CS1(=O)=O [Entry 44],38
4,C[C@@]1(c2cc(N)ccc2F)CS(=O)(=O)[C@](C)(CC2CC2)C(=N)N1 [Entry 48],37
5,C[C@@]1(c2ccccn2)C(=N)N[C@](C)(c2sc(Br)cc2F)CS1(=O)=O [Entry 86],44
6,CC1(C)C(=N)N[C@](C)(c2cc([N+](=O)[O-])ccc2F)CS1(=O)=O [Example 2-1],45

# Same assay, conditions: read-out: BACE1 inhibition, Ki
row,SMILES,Ki [nM]
1,CC1(C)C(=N)N[C@](C)(c2cccc(Cl)c2F)CS1(=O)=O [Entry 7],1400
2,CC1(C)C(=N)N[C@](C)(c2c(F)cccc2F)CS1(=O)=O [Entry 11],1300
3,CC1(C)C(=N)N[C@](C)(c2c(F)ccc(N)c2F)CS1(=O)=O [Entry 13],3600
4,CC1(C)C(=N)N[C@](C)(c2c(F)ccc(F)c2F)CS1(=O)=O [Entry 14],2400
5,CC(C)[C@@]1(C)C(=N)N[C@](C)(c2cc(N)ccc2F)CS1(=O)=O [Entry 27],4800
6,CC(C)[C@]1(C)C(=N)N[C@](C)(c2cc(N)ccc2F)CS1(=O)=O [Entry 28],7300
7,C[C@]1(CC(F)(F)F)C(=N)N[C@](C)(c2cc(N)ccc2F)CS1(=O)=O [Entry 35],3000
8,C[C@@]1(c2cc(N)ccc2F)CS(=O)(=O)[C@@](C)(C2CCC2)C(=N)N1 [Entry 39],1700
9,C[C@]1(CC2CC2)C(=N)N[C@](C)(c2cc(N)ccc2F)CS1(=O)=O [Entry 47],1800
10,C[C@@]1(c2cc(N)ccc2F)CS(=O)(=O)[C@@](C)(C2CCOCC2)C(=N)N1 [Entry 50],500
11,C[C@]1(CC2CCOCC2)C(=N)N[C@](C)(c2cc(N)ccc2F)CS1(=O)=O [Entry 53],1300
12,C[C@@]1(c2cc(N)ccc2F)CS(=O)(=O)[C@@](C)(c2cccc(F)c2)C(=N)N1 [Entry 60],1100
13,C[C@@]1(c2cc([N+](=O)[O-])ccc2F)CS(=O)(=O)[C@@](C)(c2cccc(C(F)(F)F)c2)C(=N)N1 [Entry 66],600
14,C[C@@]1(c2cc(N)ccc2F)CS(=O)(=O)[C@@](C)(c2cccc(C(F)(F)F)c2)C(=N)N1 [Entry 68],1400
15,C[C@@]1(c2cc(N)ccc2F)CS(=O)(=O)[C@@](C)(c2cc(C(F)(F)F)ccn2)C(=N)N1 [Entry 72],1400
16,C[C@@]1(c2cc(N)ccc2F)CS(=O)(=O)[C@@](C)(c2cc(C(F)(F)F)ccn2)C(=N)N1 [Entry 73],4600
17,C[C@@]1(c2cc(N)ccc2F)CS(=O)(=O)[C@@](C)(c2ccccn2)C(=N)N1 [Entry 76],6600
18,C[C@@]1(c2sc(Br)cc2F)CS(=O)(=O)[C@@](C)(c2ccccn2)C(=N)N1 [Entry 85],1500
19,C[C@@]1(c2sc(Br)cc2F)CS(=O)(=O)[C@@](C)(c2cccc(F)c2)C(=N)N1 [Entry 87],600
20,COCC1(COC)C(=N)N[C@](C)(c2sc(Br)cc2Cl)CS1(=O)=O [Entry 89],1900
21,CC1(C)C(=N)N[C@](C)(c2cc(N)cc(Cl)c2F)CS1(=O)=O [Example 2A-7],3100
22,CC1(C)C(=N)N[C@](C)(c2nc(N)ccc2F)CS1(=O)=O [Example 2F-3],6200
23,CC1(C)C(=N)N[C@](C)(c2cc(Br)cs2)CS1(=O)=O [Example 6C-1],4700
24,C[C@]1(CC(F)(F)F)C(=N)N[C@](C)(c2sc(Br)cc2F)CS1(=O)=O [Example 6F-3a],500

# Source: patent publication US9499502B2, “5-substituted iminothiazines and their mono- and dioxides as BACE inhibitors, compositions, and their use” (Merck Sharp & Dohme Corp., priority 2011, dated 2016)
